# Measurements: patent US10620222B2, “Electrified compositions for determining the risk of developing adolescent idiopathic scoliosis through the use of GI protein receptor” (CHU Sainte-Justine, priority 2008, dated 2020)
# Values joined by “and” are separate entries in the source; they are usually repeats but may differ in a detail not shown here. Equal values may be shown once.
# Columns and labels:
# [1] = system: melatonin signaling in osteoblasts; test: cAMP assay in forskolin pre-treated osteoblasts; assay type: cell-based, human; conditions: osteoblasts from IS patients; increasing concentration of melatonin; FIG. 2
# Method: Osteoblasts from patients with IS and control subjects were seeded in quadruplicate on 24-well plates (1×10^5 cells per well) and tested as previously described (Moreau A, Wang D S, Forget S et al. Melatonin Signaling Dysfunction in Adolescent Idiopathic Scoliosis. Spine 2004; 29:1772-81). All assays were performed in duplicate.
# Cells were then challenged with increasing concentration of melatonin and the functional status of melatonin signaling was estimated by the ability of melatonin to reduce cAMP levels. Data were normalized with cAMP production induced by forskolin in the absence of melatonin. […] Furthermore, the extent of this production was different between the three IS patients.
# [2] = system: receptors coupled to Gi proteins expressed on osteoblasts; test: Cellular Dielectric Spectroscopy (CDS, CELLKEY) response to Gi-coupled receptor ligands in osteoblasts from control and AIS subjects; assay type: cell-based, human; parameters: % of control / % of control signal, Group 1, min diff. / % of control signal, Group 2, min diff. / % of control signal, Group 3, min diff.: concentration or dose not given beside the values; dZiec value / Absolute dZiec, control value of max diff. (maximal control value): unit not given here; conditions: for dZiec value: n1, n2 of Exper. 1-3
# [3] = system: Gi protein-mediated pathway in MG63 osteoblast cell line; assay type: cell-based; conditions: 100 ng/mL PTX 16 h, stimulation with 10 μM ligand, 37° C., 5 min
# Method: The ability of CDS to detect the relative part of the Gi protein-mediated pathway in melatonin signaling was determined by blocking this pathway with pertussis toxin (PTX). This toxin ADP-ribosylates the a subunit of the heterotrimeric Gi protein and thereby prevents its activity. The MG63 osteoblast cell line was serum-starved for 16 h in the absence or presence of 100 ng/mL of PTX to inhibit the αi subunit of Gi protein. […] Cellular responses were measured with CELLKEY™ label-free cellular analysis system as described in the Material and Methods section.
# [4] = osteoblasts of control subjects, 300 μM ligand, from FIGS. 11A-11F
compound,measurement,setting,value
"COc1ccc2[nH]cc(CCNC(C)=O)c2c1 [Melatonin, melatonin]","cAMP production after forskolin stimulation, IS vs healthy control osteoblasts",[1],high cAMP production
same,"CDS response, dependence on concentration","[2]; osteoblasts from both control and IS patients, FIGS. 4A-4C",concentration-dependent manner
same,% of control,[2]; osteoblasts of AIS#1020 (Group 3) relative to CTR#60,52.6% and 59.8% and 63.3% and 58.1% and 58% and 59.2%
same,dZiec value,"[2]; osteoblasts of AIS#1020 (Group 3), 300 μM ligand",29.38 and 31.88 and 40.33 and 39.33 and 34.34 and 36.12
same,% of control,[2]; osteoblasts of AIS#1198 (Group 3 in Table II) relative to CTR#69,39.3% and 42.7% and 35.6% and 27.7% and 33.3% and 34.7%
same,dZiec value,"[2]; osteoblasts of AIS#1198 (Group 3 in Table II), 300 μM ligand",23.94 and 31.44 and 31.91 and 25.91 and 27.41 and 29.19
same,% of control,[2]; osteoblasts of AIS#1468 (Group 3) relative to CTR#61,65.3% and 70% and 67.8% and 64.6% and 66.4% and 67.2%
same,dZiec value,"[2]; osteoblasts of AIS#1468 (Group 3), 300 μM ligand",44.92 and 46.42 and 54.79 and 49.34 and 51.12
same,% of control,[2]; osteoblasts of AIS#1474 (Group 1) relative to CTR#60,29.6% and 24.4% and 23.8% and 22.4% and 29.3% and 26.4%
same,dZiec value,"[2]; osteoblasts of AIS#1474 (Group 1), 300 μM ligand",16.53 and 13.03 and 15.18 and 17.34 and 16.12
same,% of control,[2]; osteoblasts of AIS#1488 (Group 1) relative to CTR#69,12.9% and 15.3% and 12.2% and 11.7% and 15% and 14.4%
same,dZiec value,"[2]; osteoblasts of AIS#1488 (Group 1), 300 μM ligand",9.79 and 11.29 and 10.91 and 12.34 and 12.12
same,% of control,[2]; osteoblasts of AIS#1513 (Group 3) relative to CTR#61,56.5% and 59.4% and 62.9% and 61.1% and 59.7% and 60.6%
same,dZiec value,"[2]; osteoblasts of AIS#1513 (Group 3), 300 μM ligand",38.90 and 39.40 and 50.81 and 51.81 and 44.34 and 46.12
same,% of control,[2]; osteoblasts of AIS#1549 (Group 1) relative to CTR#61,25.1% and 25.3% and 22.8% and 24.1% and 23.3%
same,dZiec value,"[2]; osteoblasts of AIS#1549 (Group 1), 300 μM ligand",17.30 and 16.80 and 18.41 and 20.41 and 17.34 and 19.12
same,% of control,[2]; osteoblasts of AIS#1550 (Group 2) relative to CTR#60,50.7% and 57.7% and 46.2% and 47.9% and 49.5% and 51%
same,dZiec value,"[2]; osteoblasts of AIS#1550 (Group 2), 300 μM ligand",28.28 and 30.78 and 29.43 and 32.43 and 29.34 and 31.12
same,dZiec value,"[2]; osteoblasts of control CTR#60, 300 μM ligand",55.81/— and 53.31/— and 63.72/— and 67.72/— and 59.25/— and 61.03/—
same,dZiec value,"[2]; osteoblasts of control CTR#61, 300 μM ligand",68.79/— and 66.29/— and 80.84/— and 84.84/— and 74.30/— and 76.08/—
same,dZiec value,"[2]; osteoblasts of control CTR#69, 300 μM ligand",76.12/— and 73.62/— and 89.58/— and 93.58/— and 82.34/— and 84.12/—
same,"Absolute dZiec, control value of max diff. (maximal control value)",[2]; [4],83
same,"Absolute dZiec, control value of min diff. (minimal control value)",[2]; [4],60
same,"Absolute dZiec, Group 1, max diff. (group value)","[2]; osteoblasts, AIS Group 1 value of max diff., 300 μM ligand, from FIGS. 11A-11F",11
same,"Absolute dZiec, Group 1, min diff. (group value)","[2]; osteoblasts, AIS Group 1 value of min diff., 300 μM ligand, from FIGS. 11A-11F",18
same,"% of control signal, Group 1, max diff.","[2]; osteoblasts, AIS Group 1 vs maximal control value",13%
same,"% of control signal, Group 1, min diff.","[2]; osteoblasts, AIS Group 1 vs minimal control value",30%
same,"Absolute dZiec, Group 2, max diff. (group value)","[2]; osteoblasts, AIS Group 2 value of max diff., 300 μM ligand, from FIGS. 11A-11F",28
same,"Absolute dZiec, Group 2, min diff. (group value)","[2]; osteoblasts, AIS Group 2 value of min diff., 300 μM ligand, from FIGS. 11A-11F",37
same,"% of control signal, Group 2, max diff.","[2]; osteoblasts, AIS Group 2 vs maximal control value",34%
same,"% of control signal, Group 2, min diff.","[2]; osteoblasts, AIS Group 2 vs minimal control value",62%
same,"Absolute dZiec, Group 3, max diff. (group value)","[2]; osteoblasts, AIS Group 3 value of max diff., 300 μM ligand, from FIGS. 11A-11F",45
same,"Absolute dZiec, Group 3, min diff. (group value)","[2]; osteoblasts, AIS Group 3 value of min diff., 300 μM ligand, from FIGS. 11A-11F",50
same,"% of control signal, Group 3, max diff.","[2]; osteoblasts, AIS Group 3 vs maximal control value",54%
same,"% of control signal, Group 3, min diff.","[2]; osteoblasts, AIS Group 3 vs minimal control value",83%
same,magnitude of CDS response in IS osteoblasts vs control,"[2]; osteoblasts, FIGS. 4A-4C",significantly lower
same,inhibition extent of the CDS response by PTX treatment,[3],about 75%
